From patent US8883827B2, “Azole derivatives as WTN pathway inhibitors” (Oslo University Hospital HF, priority 2009, dated 2014)

Tests used:
Type in all cases: cell-based
canonical Wnt signaling [1] = assay: ST-Luc (SuperTOPFlash) Luciferase assay in HEK293 cells, 30% Wnt3a-CM; details: Homo sapiens, HEK293; 10 μM compound, 30% Wnt3a-CM, 24 h; relative to DMSO control
Experimental: Inhibition of Wnt signaling by compound No. 1 was quantified in vitro using a Luciferase assay in HEK293 cells transiently transfected with SuperTOPFlash plasmid (ST-Luc) (Veeman M T et al., Curr. Biol. 13: 680-685, 2003) at concentrations from 0.1-10 μM. HEK293 cells were purchased from ATCC (American Type Culture Collection) and maintained according to suppliers recommendations.
Transfection was performed using 80000 HEK293 cells seeded in 48-well plates coated with poly-L lysine. After 24 hours, 0.25 μg total plasmid DNA (0.23 μg SuperTOPFlash+0.02 μg pRL-TK (Renilla)—Promega) and 0.75 μl FuGENE6 (Roche) was combined in a total volume in 25 μl Opti-MEM® (Invitrogen) as described by the manufacturer (Roche). The transfection mixture was added to the plated cells and media were changed after 24 hours.
The Luciferase assay was performed by incubating transfected cells for 24 hours with various concentrations of compound No. 1 in 30% Wnt3a-CM (Wnt3a containing conditioned medium from L Wnt3a cells was harvested as described by ATCC). All treated reporter cells were finally lysed and the firefly luciferase and Renilla activities were measured on a 20/20n Luminometer (Turner BioSystems) as described in the Dual-Glo™ Luciferase Assay System Technical Manual (Promega).
HEK293 cells were transfected, grown and assayed as described in Example 22. 24 hours after seeding, the cells were incubated for an additional 24 hours with 10 μM concentrations of compounds in 30% Wnt3a-CM.
The percent activities shown in Table 3 are calculated relative to DMSO as a control. Some values shown are averages of multiple measurements. Compound XAV939 (Novartis; Huang et al., Nature (2009), 461, pp. 614-20) which is used as a positive control, has an activity of 7%.

SW480 cells = assay: Growth inhibition (GI50) MTS assay; details: Homo sapiens, 72 h
Experimental: Growth inhibition curves were prepared using SW480 cells, prepared essentially according to Example 23. SW480 cells (3000 cells per well) were seeded on 96 well plates (eight replicates per treatment). 24 hours later and daily thereafter, cell culture media (including 10% FBS) was mixed with various compound concentrations or with 0.1% DMSO vehicle and then added to the wells. Sixteen wells of seeded control cells, defining incubation time zero (to =24 hour after cell seeding), were incubated with […] substrate in 100 μl of phenol-free D-MEM (Invitrogen) for 2 hours, as described in the CellTiter 96® AQueous Non-Radioactive Cell Proliferation Assay protocol (MTS, Promega). The A490 was recorded. The treatment samples were likewise measured after 72 hours. The following formula was used to determine the single well relative A490 sample values: ((Sample A490−Average A490t0)*100)/(Average A490t720.1% DMSO control−Average A490t0)
(§1) XLfit (idbs) was used to determine the IC50 and GI50 values in inhibition experiments. The data were fit to the following formulae:
GI50: Eadie-Hofstee Model: fit=(A+((B*x)/((C*(D+1))+x))) inv=(((y−A)*(C*(D+1)))/((A+B)−y)) res=(y−fit)

canonical Wnt signaling [2] = assay: IC50 in STF/REN HEK293 cells, 50% Wnt3a-CM; details: Homo sapiens; STF/REN HEK293, 50% Wnt3a-CM, 24 h
Experimental: IC50 values were calculated using STF/REN HEK293 cells prepared essentially according to Example 22. Briefly, HEK293 cells (80,000 cells per well) were seeded in 48-well plates coated with poly-L lysine. 24 hours after seeding, the cells were incubated for an additional 24 hours with various compound concentrations in 50% Wnt3a-CM. After compound exposure, the cells were lysed and the firefly luciferase and Renilla activities were measured on a 20/20n Luminometer (Turner BioSystems) as described in the Dual-Glo™ Luciferase Assay System Technical Manual (Promega).
as §1
IC50: Langmuir Binding Isotherm: fit=((A+(B*x))+(((C−B)*(1−exp((−1*D)*x)))/D)) res=(y−fit)

control cell lines = assay: MTS cell proliferation assay, Table 6, mean; details: HeLa, HCT116, LS174T; 10 μM, 72 h
From the text: (§2) Control cell lines used were HeLa cells (cell growth not controlled by canonical Wnt signalling) and colorectal cancer cell lines LS174T and HCT116 (with mutant β-catenin N-terminal phosphorylation sites). Target cell lines used were colorectal cancer cell lines WiDr, LoVo, HCT-8, HCT-15, COL0205, DLD-1, HT-29, SW620, SW1463, SW480 which all carry a mutant APC gene. Target cells, along with L Wnt3a-expressing cells and HEK293 cells, were purchased from ATCC (American Type Culture Collection) and maintained according to the supplier's recommendations. Wnt3a containing conditioned media (Wnt3a-CM) from L Wnt3a expressing cells was harvested as described by ATCC.
(§3) For the experiment giving the results shown in Table 6, cells were exposed to cell culture medium (including 10% FBS) containing 10 μM of the compound to be tested 24 hours after seeding (3000 cells on 96-well plates). Medium was changed daily. After 72 hours, an MTS assay (CellTiter 96® AQueous Non-Radioactive Cell Proliferation Assay—Promega) was carried out according to the standard procedure. 0.1% DMSO was used as a control.
(§4) The quantity of reduced MTS product (as measured by the absorbance at 490 nm) is directly proportional to the number of living cells in the culture and thus allows a direct comparison of cell proliferation in each case. DMSO was used as a control. The following formula was used to determine single well relative A490 sample values: ((Sample A490−Average A490t0)*100)/(Average A490t720.1% DMSO control−Average A490t0)
(§5) Data shown are A490-percentage values relative to the DMSO control, calculated as described above, and represent averages from 2 to 4 independent experiments (except SW1463 cells treated with IWR-1 which reports only a single experiment). Compounds IWR-1 and XAV939 are known Wnt pathway inhibitors.

APC mutant cell lines = assay: MTS cell proliferation assay, Table 6, mean; details: 10 μM, 72 h
From the text: as §2, §3, §4, §5

DLD-1 = assay: MTS cell proliferation assay, Table 6; details: 10 μM, 72 h, relative to DMSO control
From the text: as §2, §3, §4, §5

LoVo = assay: MTS cell proliferation assay, Table 6; details: 10 μM, 72 h, relative to DMSO control
From the text: as §2, §3, §4, §5

WiDr = assay: MTS cell proliferation assay, Table 6; details: 10 μM, 72 h, relative to DMSO control
From the text: as §2, §3, §4, §5

SW1463 = assay: MTS cell proliferation assay, Table 6; details: 10 μM, 72 h, relative to DMSO control
From the text: as §2, §3, §4, §5

HCT116 = assay: MTS cell proliferation assay, Table 6; details: HCT116 (control); 10 μM, 72 h; relative to DMSO control
From the text: as §2, §3, §4, §5

HT-29 = assay: MTS cell proliferation assay, Table 6; details: 10 μM, 72 h, relative to DMSO control
From the text: as §2, §3, §4, §5

LS174T = assay: MTS cell proliferation assay, Table 6; details: LS174T (control); 10 μM, 72 h; relative to DMSO control
From the text: as §2, §3, §4, §5

SW480 = assay: MTS cell proliferation assay, Table 6; details: 10 μM, 72 h, relative to DMSO control
From the text: as §2, §3, §4, §5

COLO205 = assay: MTS cell proliferation assay, Table 6; details: 10 μM, 72 h, relative to DMSO control
From the text: as §2, §3, §4, §5

HCT-15 = assay: MTS cell proliferation assay, Table 6; details: 10 μM, 72 h, relative to DMSO control
From the text: as §2, §3, §4, §5

HeLa cells = assay: MTS cell proliferation assay, Table 6; details: HeLa (control); 10 μM, 72 h; relative to DMSO control
From the text: as §2, §3, §4, §5

SW620 = assay: MTS cell proliferation assay, Table 6; details: 10 μM, 72 h, relative to DMSO control
From the text: as §2, §3, §4, §5

HCT-8 = assay: MTS cell proliferation assay, Table 6; details: 10 μM, 72 h, relative to DMSO control
From the text: as §2, §3, §4, §5

| Compound | activity at 10 µM (canonical Wnt signaling [1]) | GI50 (SW480 cells) | IC50 (canonical Wnt signaling [2]) | further results |
| --- | --- | --- | --- | --- |
| COc1ccc(-n2c(SCc3nc(-c4ccc(C)cc4)no3)nnc2-c2ccccc2OC)cc1 [Compound 8] | 28.5% | 10.5 µM | 2.1 µM | – |
| Cc1ccc(-c2nnc(CSc3nnc(-c4ccncc4)n3-c3ccccc3C)o2)cc1 [Compound 48] | 9.9% | 9 µM | 0.22 µM | – |
| Cc1ccc(-c2noc(CSc3nnc(-c4ccncc4)n3-c3ccccc3C)n2)cc1 [Compound 7] | 5.6% | 7.5 µM | 0.88 µM | – |
| Oc1nc(-c2ccc(C(F)(F)F)cc2)nc2c1CSCC2 [XAV939, reference compound] | 7% | – | < 0.1 µM | Mean proliferation (control cell lines) (control cell lines): 99%; Ratio of means (APC mutant cell lines; APC mutant cell lines versus control cell lines): 1.01; Mean proliferation (APC mutant cell lines) (APC mutant cell lines; ten APC mutant colorectal lines): 101%; Cell proliferation (%) (DLD-1): 102%; Cell proliferation (%) (LoVo): 129%; Cell proliferation (%) (WiDr): 94%; Cell proliferation (%) (SW1463): 64%; Cell proliferation (%) (HCT116): 109%; Cell proliferation (%) (HT-29): 100%; Cell proliferation (%) (LS174T): 97%; Cell proliferation (%) (SW480): 103%; Cell proliferation (%) (COLO205): 116%; Cell proliferation (%) (HCT-15): 90%; Cell proliferation (%) (HeLa cells): 92%; Cell proliferation (%) (SW620): 102%; Cell proliferation (%) (HCT-8): 105% |
| COc1ccc(-n2c(NCc3nc(-c4ccc(C)cc4)no3)nnc2-c2ccncc2)cc1 [Compound 19] | 44.1% | > 25 µM | 8.8 µM | – |
| COc1ccc(-n2c(SCc3nc(-c4ccc(Cl)cc4)no3)nnc2-c2ccncc2)cc1 [Compound 5] | 10% | 10 µM | 0.95 µM | – |
| Cc1ccc(-c2noc(CSc3nnc(-c4ccncc4)n3-c3cccc(C)c3C)n2)cc1 [Compound 44] | 10.4% | 22 µM | 0.57 µM | – |
